Results from US5856517A, “Substituted pyrroles” (Hoffmann-La Roche Inc., priority 1997, dated 1999).

Legend:
[1] = tested on: epithelial breast carcinoma cell line MDAMB-435; test: Antiproliferative activity, growth of MDAMB-435 cells (MTT); assay type: cell-based; conditions: Homo sapiens, MDA-MB-435, 120 h, MDAMB435, day 5 post-drug addition, 0.1% DMSO, * = average of two separate experiments
Method: (§1) The epithelial breast carcinoma cell line, MDAMB-435, and the colon carcinoma cell line, SW480, were purchased from ATCC (American Type Cell Culture Collection) and were grown in culture in medium as recommended by ATCC. For analysis of the effect of various compounds on growth of these cells, the cells were plated at a concentration of 1500 cells/well in a 96 well tissue culture plate ("test plate"). The day after the cells were plated, the compounds to be analyzed were dissolved in 100% DMSO (dimethyl sulfoxide) to yield at 10 mM stock solution. Each compound was diluted in H2 O to 1 mM and was added to triplicate wells in the first row of a 96 well master plate which contains medium to yield a final concentration of 40 μM. The compounds were then serially diluted in medium in the "master plate". The diluted compound(s) were then transferred to test plates containing cells. A row of vehicle "control cells" received DMSO. The final concentration of DMSO in each well was 0.1%. At day 5 post-drug addition, the plates containing MDA-MB435 cells were analyzed as follows. Plates containing SW480 cells were analyzed at day 7 post drug addition as follows.
(§2) MTT (3-(4-5methylthiazole-2-yl)-2,5-diphenyl tetrazolium bromide; thiazolyl blue) was added to each well to yield a final concentration of 1 mg/ml. The plate was then incubated at 37° C. for 21/2-3 hours. The MTT containing medium was then removed and 50 μl of 100% ethanol was added to each well to dissolve the formazan. The absorbences were then read using an automated plate reader (Bio-tek microplate reader). IC50 's were calculated using the Reed and Munsch equation, see Am. J. Hygiene Vol. 27 pgs. 493-497, 1938.

[2] = tested on: colon carcinoma cell line SW480; test: Antiproliferative activity, growth of SW480 cells (MTT); assay type: cell-based; conditions: Homo sapiens, 168 h, day 7 post drug addition, 0.1% DMSO, * = average of two separate experiments
Method: as §1, §2

IC50 [1] [nM] | IC50 [2] [nM] | SMILES
10 | 10 | COC(=O)c1ccc2c(C3=C(c4cn(C)c5ccccc45)C(=O)NC3=O)cn(C)c2c1 [Ex 4a, 1-methyl-3-[4-(1-methyl-1H-indol-3-yl)-2,5-dioxo-2,5-dihydro-1H-pyrrol-3-yl]-1H-indole-6-carboxylic acid methyl ester]
30 | 8 | Cn1cc(C2=C(c3cn(C)c4cc(C#N)ccc34)C(=O)NC2=O)c2ccccc21 [Ex 1, 1-methyl-3-[4-(1-methyl-1H-indol-3-yl)-2,5-dioxo-2,5-dihydro-1H-pyrrol-3-yl]-1H-indole-6-carbonitrile]
420 | 350 | Cn1cc(C2=C(c3cn(C)c4cc(CO)ccc34)C(=O)NC2=O)c2ccccc21 [Ex 5, 3-(6-hydroxymethyl-1-methyl-1H-indol-3-yl)-4-(1-methyl-1H-indol-3-yl)pyrrole-2,5-dione]
70 | 110 | COCc1ccc2c(C3=C(c4cn(C)c5ccccc45)C(=O)NC3=O)cn(C)c2c1 [Ex 4c, 3-(6-Methoxymethyl-1-methyl-1H-indol-3-yl)-4-(1-methyl-1H-indol-3-yl)-pyrrole-2,5-dione]
300 | 830 | CC(=O)OCc1ccc2c(C3=C(c4cn(C)c5ccccc45)C(=O)NC3=O)cn(C)c2c1 [Ex 3, Acetic acid 1-methyl-3-[4-(1-methyl-1H-indol-3-yl)-2,5-dioxo-2,5-dihydro-1H-pyrrol-3-yl]-1H-indol-6-yl methyl ester]
32 | 54 | Cn1cc(C2=C(c3cn(C)c4cc(C=O)ccc34)C(=O)NC2=O)c2ccccc21 [Ex 4b, 1-methyl-3-[4-(1-methyl-1H-indol-3-yl)-2,5-dioxo-2,5-dihydro-1H-pyrrol-3-yl]-1H-indole-6-carboxaldehyde]
700 | – | Cn1cc(C2=C(c3cn(C)c4cc(C(N)=O)ccc34)C(=O)NC2=O)c2ccccc21 [Ex 6, 1-Methyl-3-[4-(1-methyl-1H-indol-3-yl)-2,5-dioxo-2,5-dihydro-1H-pyrrol-3-yl]-1H-indole-6-carboxylic acid amide]
